Experimental data: PubChem BioAssay (NCI)
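The concentration for 50% growth inhibition is given as GI50. TGI is the concentration that stops growth completely.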

What was measured:
Experiment in all cases: NCI anticancer screen, dose series, 384-well format
[1] = system: SR leukemia
[2] = system: U251 glioblastoma
[3] = system: HOP-62 NSCLC
[4] = system: HL-60(TB) leukemia
[5] = system: HCC-2998 colon
[6] = system: NCI-H322M lung
[7] = system: K-562 leukemia
[8] = system: MOLT-4 leukemia
[9] = system: MDA-MB-435 melanoma
[10] = system: DU-145 prostate
[11] = system: UACC-257 melanoma
[12] = system: SNB-19 CNS
[13] = system: SK-MEL-28 melanoma
[14] = system: NCI-H460 NSCLC
[15] = system: IGROV1 ovarian
[16] = system: CAKI-1 renal
[17] = system: COLO 205 colon
[18] = system: HCT-15 colon
[19] = system: HOP-92 NSCLC
[20] = system: HCT-116 colon
[21] = system: NCI-H23 lung
[22] = system: HS 578T breast
[23] = system: NCI-H226 lung
[24] = system: MCF7 breast
[25] = system: MALME-3M melanoma
[26] = system: CCRF-CEM leukemia
[27] = system: PC-3 prostate
[28] = system: OVCAR-4 ovarian
[29] = system: LOX IMVI melanoma
[30] = system: MDA-MB-468 breast
[31] = system: A498 renal
[32] = system: HT29 colon
[33] = system: RXF 393 renal
[34] = system: SN12C renal
[35] = system: SK-MEL-5 melanoma
[36] = system: SW-620 colon
[37] = system: NCI-H522 lung
[38] = system: OVCAR-5 ovarian
[39] = system: EKVX NSCLC
[40] = system: BT-549 breast
[41] = system: KM12 colon
[42] = system: T-47D breast
[43] = system: OVCAR-8 ovarian
[44] = system: NCI/ADR-RES ovarian
[45] = system: SF-295 CNS
[46] = system: SF-539 CNS
[47] = system: RPMI-8226 leukemia
[48] = system: ACHN renal
[49] = system: 786-0 renal
[50] = system: SK-OV-3 ovarian
[51] = system: A549 NSCLC
[52] = system: SF-268 CNS
[53] = system: OVCAR-3 ovarian
[54] = system: TK-10 renal
[55] = system: UO-31 renal
[56] = system: M14 melanoma
[57] = system: SNB-75 CNS
[58] = system: MDA-MB-231 breast

Compound: CNC(=O)c1cc(Oc2ccc3nc(N[C@@H]4CCCC[C@H]4O)sc3c2)ccn1
- GI50 [1]: 10.5 µM
- TGI [1]: 23.3 µM
- GI50 [2]: 73.2 µM
- TGI [2]: > 100 µM
- GI50 [3]: 51.1 µM
- TGI [3]: > 100 µM
- GI50 [4]: 22.2 µM
- TGI [4]: > 100 µM
- GI50 [5]: > 100 µM
- TGI [5]: > 100 µM
- GI50 [6]: > 100 µM
- TGI [6]: > 100 µM
- GI50 [7]: 35.1 µM
- TGI [7]: > 100 µM
- GI50 [8]: 31.7 µM
- TGI [8]: > 100 µM
- GI50 [9]: > 100 µM
- TGI [9]: > 100 µM
- GI50 [10]: > 100 µM
- TGI [10]: > 100 µM
- GI50 [11]: 48.4 µM
- TGI [11]: > 100 µM
- GI50 [12]: > 100 µM
- TGI [12]: > 100 µM
- GI50 [13]: > 100 µM
- TGI [13]: > 100 µM
- GI50 [14]: 48 µM
- TGI [14]: > 100 µM
- GI50 [15]: > 100 µM
- TGI [15]: > 100 µM
- GI50 [16]: > 100 µM
- TGI [16]: > 100 µM
- GI50 [17]: > 100 µM
- TGI [17]: > 100 µM
- GI50 [18]: 34.4 µM
- TGI [18]: > 100 µM
- GI50 [19]: > 100 µM
- TGI [19]: > 100 µM
- GI50 [20]: 53 µM
- TGI [20]: > 100 µM
- GI50 [21]: 45.3 µM
- TGI [21]: > 100 µM
- GI50 [22]: 46.1 µM
- TGI [22]: > 100 µM
- GI50 [23]: 35.2 µM
- TGI [23]: > 100 µM
- GI50 [24]: 34.7 µM
- TGI [24]: > 100 µM
- GI50 [25]: 56.2 µM
- TGI [25]: > 100 µM
- GI50 [26]: 39.3 µM
- TGI [26]: > 100 µM
- GI50 [27]: 71.3 µM
- TGI [27]: > 100 µM
- GI50 [28]: 40.3 µM
- TGI [28]: > 100 µM
- GI50 [29]: 72.2 µM
- TGI [29]: > 100 µM
- GI50 [30]: 12.3 µM
- TGI [30]: 45.3 µM
- GI50 [31]: > 100 µM
- TGI [31]: > 100 µM
- GI50 [32]: > 100 µM
- TGI [32]: > 100 µM
- GI50 [33]: 25.8 µM
- TGI [33]: 83.2 µM
- GI50 [34]: > 100 µM
- TGI [34]: > 100 µM
- GI50 [35]: 19.8 µM
- TGI [35]: 42.2 µM
- GI50 [36]: > 100 µM
- TGI [36]: > 100 µM
- GI50 [37]: 59 µM
- TGI [37]: > 100 µM
- GI50 [38]: > 100 µM
- TGI [38]: > 100 µM
- GI50 [39]: 58.9 µM
- TGI [39]: > 100 µM
- GI50 [40]: 60.4 µM
- TGI [40]: > 100 µM
- GI50 [41]: > 100 µM
- TGI [41]: > 100 µM
- GI50 [42]: 33.4 µM
- TGI [42]: > 100 µM
- GI50 [43]: 59 µM
- TGI [43]: > 100 µM
- GI50 [44]: 24.2 µM
- TGI [44]: > 100 µM
- GI50 [45]: 41.7 µM
- TGI [45]: > 100 µM
- GI50 [46]: 89.1 µM
- TGI [46]: > 100 µM
- GI50 [47]: 18.9 µM
- TGI [47]: 69.1 µM
- GI50 [48]: > 100 µM
- TGI [48]: > 100 µM
- GI50 [49]: > 100 µM
- TGI [49]: > 100 µM
- GI50 [50]: > 100 µM
- TGI [50]: > 100 µM
- GI50 [51]: > 100 µM
- TGI [51]: > 100 µM
- GI50 [52]: > 100 µM
- TGI [52]: > 100 µM
- GI50 [53]: > 100 µM
- TGI [53]: > 100 µM
- GI50 [54]: 84.8 µM
- TGI [54]: > 100 µM
- GI50 [55]: > 100 µM
- TGI [55]: > 100 µM
- GI50 [56]: > 100 µM
- TGI [56]: > 100 µM
- GI50 [57]: 68.8 µM
- TGI [57]: > 100 µM
- GI50 [58]: 60 µM
- TGI [58]: > 100 µM
